Measured values from patent US20130150346A1, “Use of FAAH Inhibitors for Treating Parkinson's Disease and Restless Legs Syndrome” (Ironwood Pharmaceutical, Inc., priority 2010, published 2013).

Columns and labels:
[1] = Plasma L-DOPA levels by LC-MS/MS in MPTP-lesioned marmosets; type: in vivo, common marmosets (Callithrix jacchus); conditions: URB597 10 mg/kg p.o., 2 h post L-DOPA, 4 h post URB597, p>0.05, paired t-test
Description: Six common marmosets (Callithrix jacchus; female; weight, 350-500 g (Harlan, Madison, Wis., USA)) were kept under conditions of controlled temperature (25±2° C.) and a 12-hour light/dark cycle (lights on 6:30 a.m.). Animals were group housed and had access to food, fresh-fruit supplements and water ad libitum and their home cage environment was enriched with primate toys, perches and auditory stimuli. Prior to start of studies, animals were acclimatized to handling, blood collection and administration of treatments (oral syringe feeding and subcutaneous injection) as well as transfer to observation cages for assessment of behavior. A parkinsonian syndrome was induced by once-daily subcutaneous administration of MPTP hydrochloride (Sigma, Canada; 2 mg/kg base concentration in 0.9% saline) for 5 consecutive days. Following this, animals were allowed to recover for 12 weeks to allow parkinsonian symptoms to develop and stabilize. […] Treatment-related complications including dyskinesia and psychosis-like behaviors were evoked by twice-daily treatment with L-DOPA p.o. (as Prolopa®, Roche Canada, Ontario, equivalent to 15 mg/kg L-DOPA and 3.5 mg/kg benserazide) for a minimum of 30 days. […]
The effect of oral treatment with either vehicle or URB597 (10 mg/kg) on plasma levels of L-DOPA was assessed at the beginning of the period of peak L-DOPA effect, i.e., 2 h after L-DOPA administration. […]

[2] = test system: MPTP-lesioned marmosets; experiment: Motor activity (passive infra-red sensors: total activity, high activity counts and time) in MPTP-lesioned marmosets; type: in vivo, common marmosets (Callithrix jacchus)
Description: Six common marmosets (Callithrix jacchus; female; weight, 350-500 g (Harlan, Madison, Wis., USA)) were kept under conditions of controlled temperature (25±2° C.) and a 12-hour light/dark cycle (lights on 6:30 a.m.). Animals were group housed and had access to food, fresh-fruit supplements and water ad libitum and their home cage environment was enriched with primate toys, perches and auditory stimuli. Prior to start of studies, animals were acclimatized to handling, blood collection and administration of treatments (oral syringe feeding and subcutaneous injection) as well as transfer to observation cages for assessment of behavior. A parkinsonian syndrome was induced by once-daily subcutaneous administration of MPTP hydrochloride (Sigma, Canada; 2 mg/kg base concentration in 0.9% saline) for 5 consecutive days. Following this, animals were allowed to recover for 12 weeks to allow parkinsonian symptoms to develop and stabilize. […] Treatment-related complications including dyskinesia and psychosis-like behaviors were evoked by twice-daily treatment with L-DOPA p.o. (as Prolopa®, Roche Canada, Ontario, equivalent to 15 mg/kg L-DOPA and 3.5 mg/kg benserazide) for a minimum of 30 days. […] Disord. 21:839-846; Visanji et al. (2008) Mov. Disord. 23:1922-1925; Visanji et al (2009) Neurobiol Dis. 35: 184-192]. After this time, the animals were used in several studies to evaluate potential anti-parkinsonian and anti-dyskinetic agents. A minimum period of two weeks was allowed between completing any prior study and commencing this study, a period in excess of ten half-lives since administration of any previously employed experimental drug. Throughout the course of the study, on days not requiring plasma sampling or behavioral observations, animals were treated once daily with oral L-DOPA therapy, given at 10:00 a.m. to maintain stable levels of complications. Marmosets treated with MPTP as described in this example are referred to as MPTP-lesioned marmosets.
To assess the effect of treatment on plasma FAAH substrate level, total activity, high activity time and count, data were analyzed using a parametric repeated-measures (RM) 1-way analysis of variance (ANOVA) followed by a Student Newman-Keuls Multiple Comparison post hoc test. To assess the effect of treatment on plasma L-DOPA level a paired, two-tailed t-test was used. All FAAH (AEA, OEA, PEA) subbstrate and L-DOPA plasma level data and activity data are presented as the group mean and SEM For measures of parkinsonian disability, dyskinesia and psychosis, data were analyzed via Friedman's test with Dunn's Multiple Comparison post hoc test. […] In all cases, p<0.05 was taken to represent a significant difference.
MPTP hydrochloride (Sigma, Canada) was dissolved in 0.9% NaCl sterile solution to a concentration of 0.2 mg/ml (freebase) and administered at 1 ml/kg. Maintenance L-DOPA, administered as Prolopa® capsules (Roche, Mississauga, ON, Canada) containing 50 mg L-DOPA and 12.5 mg benserazide (freebase) was dissolved in Gatorade sports beverage (The Gatorade Company, Chicago, Ill.) prior to oral administration by syringe at a volume of 10 ml/kg. On days of behavioral assessment, L-DOPA (20 mg/kg, freebase) was prepared from the methyl ester form (Sigma, Canada) in combination with benserazide hydrochloride (5 mg/kg, freebase, Sigma, Canada) dissolved in 0.9% sterile saline containing 0.1% ascorbate (Sigma, Canada) and 0.05% absolute ethanol. URB597 (Cayman Chemical, Ann Arbor, Mich.) was formulated in a vehicle containing 50% corn oil (Professional Compounding Centers of America (PCCA), Houston, Tex.) and 50% nutritional drink Ensure™ (Abbott Nutrition, Chicago, Ill.) to make the suspension palatable for marmoset oral dosing. Requisite amounts of URB597 were weighed into sterile 50 ml polypropylene tubes (for the 3, 10, 30 and 60 mg/kg doses, 12, 40, 120 and 240 mg were weighed respectively). Then, 10 ml Corn oil was added and mixed until homogenous.

[3] = URB597 10 mg/kg p.o. + L-DOPA 20 mg/kg s.c., 2-4 h, p<0.05
[4] = URB597 10 mg/kg p.o. + L-DOPA 20 mg/kg s.c., 2-4 h, p>0.05

NC(=O)c1cccc(-c2cccc(OC(=O)NC3CCCCC3)c2)c1 [URB597]
effect of URB597 on plasma L-DOPA levels [1]: did not alter | reduction of L-DOPA-induced total activity compared to L-DOPA alone [2, 3]: 32% | reduction of high activity counts evoked by L-DOPA [2, 3]: 52% | reduction of high activity time evoked by L-DOPA [2, 3]: 48% | high activity counts and high activity time compared to normal, unlesioned animals [2, 4]: not significantly different | total activity relative to normal, un-lesioned animals [2, 4]: 119 % of normal | time after which total activity counts were no longer significantly different compared to vehicle (s.c.)-treated animals ([2]; URB597 10 mg/kg p.o. + L-DOPA 20 mg/kg s.c., 6 h time course): 2.5 h | effect on total activity and high activity cf. vehicle ([2]; URB597 10 mg/kg p.o. given alone (vehicle s.c.), p>0.05): did not modify | total activity counts ([2]; URB597 10 mg/kg p.o. in combination with L-DOPA 20 mg/kg s.c., 2-4 h, mean±SEM, n=6): 1879±332 counts
